One data set has as its system VCAM-1. Briefly: In Vitro VCAM-1 Assay (TNF-α stimulated endothelial cells, cell-surface ELISA). Format: cell-based. Conditions: Homo sapiens, Endothelial cell, 16 h, primary human aortic (HAEC) or pulmonary (HPAEC) endothelial cells, TNF-α 1 ng/ml, approximately 16 hours, ELISA OD 450 nm. The procedure: Cell Culture and compound dosing: Cultured primary human aortic (HAEC) or pulmonary (HPAEC) endothelial cells were obtained from Clonetics, Inc., and were used below passage 9. Cells were seeded in 96 well plates such that they would reach 90–95% confluency by the following day. On the following day the cells were stimulated with TNF-α (1 ng/ml) in the presence or absence of compounds dissolved in DMSO such that the final concentration of DMSO is 0.25% or less. To establish a dose curve for each compound, four concentrations in 2- to 5-fold increments were used. Cells were exposed to TNF-α and compounds for approximately 16 hours. The next day the cells were examined under microscope to score for visual signs of toxicity or cell stress.
Following 16 hr exposure to TNF-α and compound the media was discarded and the cells were washed once with Hanks Balanced Salt Solution (HBSS)/Phosphate buffered saline (PBS) (1:1). Primary antibodies against VCAM-1 (0.25 μg/ml in HBSS/PBS+5% FBS) were added and incubated for 30–60 minutes at 37° C. Cells were washed with HBSS/PBS three times, and secondary antibody Horse Radish Peroxidase (HRP)-conjugated goat anti-mouse IgG (1:500 in HBSS/PBS+5% FBS) were added and incubated for 30 minutes at 37° C. Cells were washed with HBSS/PBS four time and TMB substrate were added and incubated at room temperature in the dark until there was adequate development of blue color. The length of time of incubation was typically 5–15 minutes. 2N sulfuric acid was added to stop the color development and the data was collected by reading the absorbance on a BioRad ELISA plate reader at OD 450 nm. The results are expressed as IC50 values (the concentration (micromolar) of compound required to inhibit 50% of the maximal response of the control sample stimulated by TNF-α only).

A value given as a limit tells only on which side of the number the result lay.

Usually IC50 stands for the concentration needed to halve the response being measured. High values mean weaker potency in that assay, low ones greater potency in that assay. The melting point is the temperature of the solid-liquid transition. `COc1cc(OCCN2CCOCC2)c(/C=C/C(=O)c2ccc(S(=O)(=O)Nc3cc(C)on3)cc2)cc1-c1cccs1.Cl` [Example 14, 4-{3E-[4-Methoxy-2-(2-morpholin-4-yl-ethoxy)-5-thien-2-ylphenyl]acryloyl}-N-(5-methyl-isoxazol-3-yl)benzenesulfonamide hydrochloride] displayed a melting point above 260 °C. The IC50 in the data set with VCAM-1 was below 5 µM.

`COc1cc(OC)c(-c2cc3ccccc3n2C)cc1/C=C/C(=O)c1ccc(S(=O)(=O)NCCN2CCOCC2)cc1` [Example 18, 4-{3E-[2,4-Dimethoxy-5-(1-methyl-1H-indol-2-yl)phenyl]acryloyl}-N-(2-morpholin-4-yl-ethyl)benzenesulfonamide] came in with a melting point of 167 to 168 °C. The molecule also gave an IC50 with VCAM-1 below 10 µM.

On to `COc1cc(OC)c(-c2cccs2)cc1/C=C/C(=O)c1ccc(S(=O)(=O)NCc2cccnc2)cc1` [Example 19, 4-[3E-(2,4-Dimethoxy-5-thien-2-ylphenyl)acryloyl]-N-pyridin-3-ylmethylbenzenesulfonamide], for which the melting point lay within 167 to 168 °C. This molecule also registered a 50% inhibitory concentration (IC50) in the data set on VCAM-1 below 5 µM.

Turning to `COc1cc(OC)c(-c2cccs2)cc1/C=C/C(=O)c1ccc(S(=O)(=O)NCCN2CCOCC2)cc1` [Example 20, 4-[3E-(2,4-Dimethoxy-5-thien-2-ylphenyl)acryloyl]-N-(2-morpholin-4-yl-ethyl)benzenesulfonamide], the melting point is 171 to 172 °C. Besides, in the data set on VCAM-1, the half-maximal inhibitory concentration (IC50) was below 5 µM.

`COc1cc(OC)c(-c2cccs2)cc1/C=C/C(=O)c1ccc(S(=O)(=O)NN2CCCCC2)cc1` [Example 22, 4-[3E-(2,4-Dimethoxy-5-thien-2-ylphenyl)acryloyl]-N-piperidin-1-ylbenzenesulfonamide] showed a melting point of 174 to 176 °C. This molecule also displayed an IC50 in the data set with VCAM-1 above 10 µM.

As to `COc1cc(OC)c(-c2cccs2)cc1/C=C/C(=O)c1ccc(S(=O)(=O)NCCCn2ccnc2)cc1` [Example 23, 4-[3E-(2,4-Dimethoxy-5-thien-2-ylphenyl)acryloyl]-N-(3-imidazol-1-ylpropyl)benzenesulfonamide], the melting point fell in the range of 160 to 162 °C. The same molecule came in with an IC50 with VCAM-1 below 5 µM.

`COc1cc(OC)c(-c2cccs2)cc1/C=C/C(=O)c1ccc(S(=O)(=O)NCC(F)(F)F)cc1` [Example 24, 4-[3E-(2,4-Dimethoxy-5-thien-2-ylphenyl)acryloyl]-N-(2,2,2-trifluoroethyl)benzenesulfonamide] registered a melting point of 167 to 168 °C. The same molecule had an IC50 with VCAM-1 below 5 µM.

Turning to `COc1cc(OC)c(-c2cccs2)cc1/C=C/C(=O)c1ccc(S(=O)(=O)NCC(=O)O)cc1` [Example 26, {4-[3E-(2,4-Dimethoxy-5-thien-2-ylphenyl)acryloyl]benzenesulfonylamino}acetic acid], the melting point is 100 to 101 °C. Moreover, the half-maximal inhibitory concentration (IC50) with VCAM-1 is above 10 µM.

For the molecule `COc1cc(OC)c(-c2cccs2)cc1/C=C/C(=O)c1ccc(S(=O)(=O)NC(C)(C)C(=O)O)cc1` [Example 27, 2-{4-[3E-(2,4-Dimethoxy-5-thien-2-yl-phenyl)acryloyl]benzenesulfonylamino}-2-methylpropionic acid], the melting point was 205 °C (dec.). Further, the IC50 in the data set with VCAM-1 was below 10 µM.

`CNS(=O)(=O)c1ccc(C(=O)/C=C/c2cc(-c3cc4ccccc4n3C)c(OC)cc2OC)cc1` [Example 29, 4-{3E-[2,4-Dimethoxy-5-(1-methyl-1H-indol-2-yl)phenyl]acryloyl}-N-methyl-benzenesulfonamide] returned a melting point of 129 to 131 °C. The molecule also displayed an IC50 with VCAM-1 below 5 µM.

`CONS(=O)(=O)c1ccc(C(=O)/C=C/c2cc(-c3cc4ccccc4n3C)c(OC)cc2OC)cc1` [Example 30, 4-{3E-[2,4-Dimethoxy-5-(1-methyl-1H-indol-2-yl)phenyl]acryloyl}-N-methoxybenzenesulfonamide] showed a melting point of 214 to 216 °C. The molecule further came in with an IC50 in the data set with VCAM-1 below 10 µM.

Values taken from patent US7173129B2, “Sulfonamide-substituted chalcone derivatives and their use to treat diseases” (Athero Genics, Inc., priority 2003, dated 2007).
